Experimental data as given in US20080009418A1, “Selective Inhibitors” (Alchemia LTD., priority 2004, published 2008).

Experiments:
Human δ-opioid (DOP) = target: T1, Human δ-opioid (DOP) (Homo sapiens, UniProt P41143); assay: Radioligand binding, human δ-opioid (DOP) membranes, FlashPlate, [3H]-Bremazocine; conditions: compound at 10 μM
T1 construct: purchased Perkin Elmer Biosignal
Summary of the method: (§1)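 Cloned human receptor membranes were coated onto FlashPlate wells and incubated with radioligand and compound (added from a 0.5 mM DMSO daughter plate) for 1 hour at room temperature in the dark. Scintillation counting gave percent inhibition, with DMSO defining total and reference ligand defining non-specific binding.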

Human κ-Opioid (KOP) = target: T2, Human κ-Opioid (KOP) (Homo sapiens, UniProt P41145); assay: Radioligand binding, human κ-opioid (KOP) membranes, filtration, [3H]-Diprenorphine; conditions: compound at 10 μM
T2 construct: purchased Perkin Elmer Biosignal
Summary of the method: (§2)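 Filtration binding on cloned human receptor membranes (1 Unit/well), [125I]-Substance P for NK1 and [3H]-Diprenorphine for KOP, 1 h at room temperature. Filters PEI-presoaked, washed with cold 50 mM Tris-HCl pH 7.4, counted by scintillation; percent inhibition calculated, reference ligand defining non-specific binding.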

Human Melanocortin (MC3) = target: T3, Human Melanocortin (MC3) (Homo sapiens, UniProt P41968); assay: Radioligand binding, human melanocortin MC3 membranes, FlashPlate, [125I]-NDP-αMSH; conditions: compound at 10 μM
T3 construct: purchased Perkin Elmer Biosignal
Summary of the method: as §1

Human Melanocortin (MC4) = target: T4, Human Melanocortin (MC4) (Homo sapiens, UniProt P32245); assay: Radioligand binding, human melanocortin MC4 membranes, FlashPlate, [125I]-NDP-αMSH; conditions: compound at 10 μM
T4 construct: purchased Perkin Elmer Biosignal
Summary of the method: as §1

Human melanocortin (MC5) = target: T5, Human melanocortin (MC5) (Homo sapiens, UniProt P33032); assay: Radioligand binding, human melanocortin MC5 membranes, FlashPlate, [125I]-NDP-αMSH; conditions: compound at 10 μM
T5 construct: purchased Perkin Elmer Biosignal
Summary of the method: as §1

[1] = target: T6, Human melanin-concentrating hormone (MCH1) (Homo sapiens, UniProt Q99705); assay: Radioligand binding, human melanin-concentrating hormone MCH1 membranes, FlashPlate, [125I]-S36057; conditions: compound at 10 μM; for A6: inhibition of radioligand binding, human melanin-concentrating hormone (MCH1): [125I]-S36057
T6 construct: purchased Perkin Elmer Biosignal
Summary of the method: as §1

Human μ-opioid (MOP) = target: T7, Human μ-opioid (MOP) (Homo sapiens, UniProt P35372); assay: Radioligand binding, human μ-opioid (MOP) membranes, FlashPlate, [3H]-Naloxone; conditions: compound at 10 μM
T7 construct: purchased Perkin Elmer Biosignal
Summary of the method: as §1

Human neurokinin (NK1) = target: T8, Human neurokinin (NK1) (Homo sapiens, UniProt P25103); assay: Radioligand binding, human neurokinin NK1 membranes, filtration, [125I]-Substance P; conditions: compound at 10 μM
T8 construct: purchased Perkin Elmer Biosignal
Summary of the method: as §2

[2] = target: T9, Human neuropeptide Y (NPY-Y1) (Homo sapiens, UniProt P25929); assay: Radioligand binding, human neuropeptide Y NPY-Y1 membranes, FlashPlate, [125I]-PYY; conditions: compound at 10 μM
T9 construct: purchased Perkin Elmer Biosignal
T9 sequence (P25929 1-384): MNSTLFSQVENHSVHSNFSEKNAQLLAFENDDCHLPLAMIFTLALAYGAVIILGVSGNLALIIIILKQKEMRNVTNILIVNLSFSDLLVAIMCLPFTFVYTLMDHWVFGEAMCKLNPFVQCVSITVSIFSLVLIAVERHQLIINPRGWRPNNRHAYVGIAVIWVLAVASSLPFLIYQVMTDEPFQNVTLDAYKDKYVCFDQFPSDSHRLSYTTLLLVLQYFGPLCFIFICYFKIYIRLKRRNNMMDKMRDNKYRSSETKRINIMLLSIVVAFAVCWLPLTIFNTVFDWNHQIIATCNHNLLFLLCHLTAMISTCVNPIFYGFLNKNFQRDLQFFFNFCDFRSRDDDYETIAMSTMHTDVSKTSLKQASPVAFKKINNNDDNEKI
Summary of the method: as §1

Human opioid (ORL1) = target: T10, Human opioid (ORL1) (Homo sapiens, UniProt P41146); assay: Radioligand binding, human opioid ORL1 membranes, FlashPlate, [125I]-Nociceptin; conditions: compound at 10 μM
T10 construct: purchased Perkin Elmer Biosignal
Summary of the method: as §1

Mouse urotensin (mUR2) = target: T11, Mouse urotensin (mUR2) (Mus musculus, UniProt Q8VIH9); assay: Radioligand binding, mouse urotensin mUR2 membranes, FlashPlate, [125I]-Urotensin II; conditions: compound at 10 μM
T11 construct: purchased Perkin Elmer Biosignal
T11 sequence (Q8VIH9 1-385): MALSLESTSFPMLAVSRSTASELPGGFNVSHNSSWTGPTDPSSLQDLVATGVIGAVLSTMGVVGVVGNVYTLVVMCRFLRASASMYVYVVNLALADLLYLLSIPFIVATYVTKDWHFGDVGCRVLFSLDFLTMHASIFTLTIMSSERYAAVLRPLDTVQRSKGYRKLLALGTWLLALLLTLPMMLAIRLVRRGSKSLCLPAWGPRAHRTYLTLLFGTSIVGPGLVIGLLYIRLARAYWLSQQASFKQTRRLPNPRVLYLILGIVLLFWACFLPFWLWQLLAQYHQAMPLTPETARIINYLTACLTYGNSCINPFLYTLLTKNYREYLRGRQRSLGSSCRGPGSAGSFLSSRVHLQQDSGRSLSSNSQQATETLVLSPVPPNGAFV
Summary of the method: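 Cloned mouse urotensin (mUR2) receptor membranes from Perkin Elmer Biosignal were immobilized in FlashPlate microplates using a proprietary coating. Each well got 19.5 μl buffer, then 0.5 μl of DMSO, reference ligand, or compound. Adding 5 μl of [125I]-Urotensin II, diluted to 5× final concentration in binding buffer, started binding. Plates were sealed with TopSeal-A and incubated 1 hour at room temperature in the dark. Wells were counted for 30 seconds each on a TopCount after a 60-second delay, and percentage inhibition was calculated.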

T5 sequence (P33032 whole entry): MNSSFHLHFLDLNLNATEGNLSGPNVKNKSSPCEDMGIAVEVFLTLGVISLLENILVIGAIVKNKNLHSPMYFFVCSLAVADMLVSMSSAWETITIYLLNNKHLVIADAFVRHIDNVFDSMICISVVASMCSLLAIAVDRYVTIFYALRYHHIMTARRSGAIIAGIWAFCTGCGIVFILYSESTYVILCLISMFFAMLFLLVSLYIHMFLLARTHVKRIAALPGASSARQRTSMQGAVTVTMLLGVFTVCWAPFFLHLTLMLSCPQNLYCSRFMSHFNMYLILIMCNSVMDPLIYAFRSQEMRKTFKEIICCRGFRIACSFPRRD
T3 sequence (P41968 whole entry): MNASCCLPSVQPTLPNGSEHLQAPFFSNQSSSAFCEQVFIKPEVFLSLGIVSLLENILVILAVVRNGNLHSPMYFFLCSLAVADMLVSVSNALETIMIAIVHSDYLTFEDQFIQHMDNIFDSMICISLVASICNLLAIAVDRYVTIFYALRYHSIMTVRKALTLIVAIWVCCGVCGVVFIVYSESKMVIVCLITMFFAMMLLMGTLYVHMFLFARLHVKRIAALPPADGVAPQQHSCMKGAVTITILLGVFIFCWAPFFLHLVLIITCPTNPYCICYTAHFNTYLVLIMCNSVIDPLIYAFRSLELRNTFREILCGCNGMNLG
T6 sequence (Q99705 whole entry): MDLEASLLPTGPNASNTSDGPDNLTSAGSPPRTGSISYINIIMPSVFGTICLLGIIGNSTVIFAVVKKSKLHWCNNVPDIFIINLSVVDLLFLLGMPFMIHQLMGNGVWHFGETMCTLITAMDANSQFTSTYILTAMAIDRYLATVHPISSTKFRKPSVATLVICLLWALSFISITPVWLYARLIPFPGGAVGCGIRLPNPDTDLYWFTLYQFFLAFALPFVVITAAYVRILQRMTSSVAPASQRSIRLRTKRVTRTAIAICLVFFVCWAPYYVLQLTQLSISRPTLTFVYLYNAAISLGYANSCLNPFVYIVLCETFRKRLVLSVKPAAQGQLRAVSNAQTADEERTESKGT
T10 sequence (P41146 whole entry): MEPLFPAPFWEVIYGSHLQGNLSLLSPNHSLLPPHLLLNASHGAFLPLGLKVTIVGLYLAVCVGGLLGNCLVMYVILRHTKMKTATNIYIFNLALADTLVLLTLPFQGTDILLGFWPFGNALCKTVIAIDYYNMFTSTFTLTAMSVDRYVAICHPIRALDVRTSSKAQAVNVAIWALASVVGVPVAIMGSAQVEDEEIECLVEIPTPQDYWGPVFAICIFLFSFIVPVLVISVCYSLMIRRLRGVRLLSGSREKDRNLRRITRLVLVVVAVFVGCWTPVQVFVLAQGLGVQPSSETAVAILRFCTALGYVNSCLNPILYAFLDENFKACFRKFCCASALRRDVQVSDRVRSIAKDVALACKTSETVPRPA
T4 sequence (P32245 whole entry): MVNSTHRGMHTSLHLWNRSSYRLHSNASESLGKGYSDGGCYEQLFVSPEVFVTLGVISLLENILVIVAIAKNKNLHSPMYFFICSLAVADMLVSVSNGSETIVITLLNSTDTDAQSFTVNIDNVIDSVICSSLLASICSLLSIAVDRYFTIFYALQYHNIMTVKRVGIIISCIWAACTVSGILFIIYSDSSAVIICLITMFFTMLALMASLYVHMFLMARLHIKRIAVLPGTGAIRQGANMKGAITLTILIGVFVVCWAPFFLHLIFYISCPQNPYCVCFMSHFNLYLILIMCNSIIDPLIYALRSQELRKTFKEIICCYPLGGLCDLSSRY
T7 sequence (P35372 whole entry): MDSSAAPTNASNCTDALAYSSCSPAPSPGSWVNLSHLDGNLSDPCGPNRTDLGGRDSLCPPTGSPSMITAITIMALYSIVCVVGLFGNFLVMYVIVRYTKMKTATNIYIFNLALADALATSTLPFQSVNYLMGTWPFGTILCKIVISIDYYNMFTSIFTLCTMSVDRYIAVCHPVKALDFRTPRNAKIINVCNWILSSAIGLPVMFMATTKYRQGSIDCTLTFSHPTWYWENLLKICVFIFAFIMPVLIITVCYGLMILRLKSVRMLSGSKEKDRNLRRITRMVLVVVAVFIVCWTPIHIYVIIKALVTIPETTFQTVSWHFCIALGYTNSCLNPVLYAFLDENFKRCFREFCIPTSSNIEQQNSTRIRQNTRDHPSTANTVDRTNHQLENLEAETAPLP
T8 sequence (P25103 whole entry): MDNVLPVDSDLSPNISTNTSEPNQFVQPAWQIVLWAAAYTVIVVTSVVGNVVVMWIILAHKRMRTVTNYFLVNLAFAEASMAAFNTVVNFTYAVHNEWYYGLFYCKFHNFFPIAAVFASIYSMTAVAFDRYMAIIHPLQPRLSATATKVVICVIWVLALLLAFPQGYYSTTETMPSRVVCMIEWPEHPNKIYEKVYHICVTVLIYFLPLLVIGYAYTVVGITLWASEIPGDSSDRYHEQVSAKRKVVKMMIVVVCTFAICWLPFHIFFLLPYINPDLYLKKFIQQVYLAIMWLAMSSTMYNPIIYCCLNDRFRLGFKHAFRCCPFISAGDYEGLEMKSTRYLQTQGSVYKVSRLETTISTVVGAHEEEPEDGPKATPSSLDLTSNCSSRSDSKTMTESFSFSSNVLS
T2 sequence (P41145 whole entry): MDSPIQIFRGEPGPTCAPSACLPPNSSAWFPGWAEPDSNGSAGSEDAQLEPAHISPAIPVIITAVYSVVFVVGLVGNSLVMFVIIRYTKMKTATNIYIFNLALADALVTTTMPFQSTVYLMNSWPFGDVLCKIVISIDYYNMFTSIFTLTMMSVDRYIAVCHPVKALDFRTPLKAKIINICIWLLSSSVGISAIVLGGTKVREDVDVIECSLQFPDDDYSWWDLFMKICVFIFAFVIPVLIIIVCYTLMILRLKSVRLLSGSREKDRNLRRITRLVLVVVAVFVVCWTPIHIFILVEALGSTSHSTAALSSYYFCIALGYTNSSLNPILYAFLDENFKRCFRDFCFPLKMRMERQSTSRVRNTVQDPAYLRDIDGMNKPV
T1 sequence (P41143 whole entry): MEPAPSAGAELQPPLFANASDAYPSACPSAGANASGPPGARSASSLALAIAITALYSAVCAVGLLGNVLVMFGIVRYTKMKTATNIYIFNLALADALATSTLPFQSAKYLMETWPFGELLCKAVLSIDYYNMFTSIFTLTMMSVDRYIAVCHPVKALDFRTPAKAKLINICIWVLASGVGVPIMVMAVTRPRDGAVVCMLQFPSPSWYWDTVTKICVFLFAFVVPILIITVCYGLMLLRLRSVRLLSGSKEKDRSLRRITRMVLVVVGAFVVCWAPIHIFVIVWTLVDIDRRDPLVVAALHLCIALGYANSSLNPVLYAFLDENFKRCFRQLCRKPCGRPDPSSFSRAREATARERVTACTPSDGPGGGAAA

Compound	A1: inhibition of radioligand binding, human δ-opioid (DOP) (Human δ-opioid (DOP); [3H]-Bremazocine)	A2: inhibition of radioligand binding, human κ-opioid (KOP) (Human κ-Opioid (KOP); [3H]-Diprenorphine)	A3: inhibition of radioligand binding, human melanocortin (MC3) (Human Melanocortin (MC3); [125I]-NDP-αMSH)	A4: inhibition of radioligand binding, human melanocortin (MC4) (Human Melanocortin (MC4); [125I]-NDP-αMSH)	A5: inhibition of radioligand binding, human melanocortin (MC5) (Human melanocortin (MC5); [125I]-NDP-αMSH)	A6: inhibition of radioligand binding, human melanin-concentrating hormone (MCH1) [1]	A7: inhibition of radioligand binding, human μ-opioid (MOP) (Human μ-opioid (MOP); [3H]-Naloxone)	A8: inhibition of radioligand binding, human neurokinin (NK1) (Human neurokinin (NK1); [125I]-Substance P)	A9: inhibition of radioligand binding, human neuropeptide Y (NPY-Y1) ([2]; [125I]-PYY)	A10: inhibition of radioligand binding, human opioid (ORL1) (Human opioid (ORL1); [125I]-Nociceptin)	A11: inhibition of radioligand binding, mouse urotensin (mUR2) (Mouse urotensin (mUR2); [125I]-Urotensin II)	other results
NCCC(=O)NC1C(OCc2ccc(Cl)cc2)OC(COCc2ccc3ccccc3c2)C(O)C1OCc1ccccc1 (single isomer, unassigned) [compound 484]	− (“−” indicates less than 50% inhibition at 10 μM)	− (“−” indicates less than 50% inhibition at 10 μM)	− (“−” indicates less than 50% inhibition at 10 μM)	− (“−” indicates less than 50% inhibition at 10 μM)	+ (“+” indicates greater than 50% inhibition at 10 μM)	− (“−” indicates less than 50% inhibition at 10 μM)	− (“−” indicates less than 50% inhibition at 10 μM)	+ (“+” indicates greater than 50% inhibition at 10 μM)	− (“−” indicates less than 50% inhibition at 10 μM)	− (“−” indicates less than 50% inhibition at 10 μM)	− (“−” indicates less than 50% inhibition at 10 μM)	–
N=C(N)NCC(=O)N[C@H]1C(OCc2ccc(Cl)cc2)O[C@H](COCc2ccc3ccccc3c2)[C@@H](O)[C@@H]1OCc1ccc(-c2ccccc2)cc1 (stereo partly shown) [compound 517]	− (“−” indicates less than 50% inhibition at 10 μM)	+ (“+” indicates greater than 50% inhibition at 10 μM)	+ (“+” indicates greater than 50% inhibition at 10 μM)	+ (“+” indicates greater than 50% inhibition at 10 μM)	+ (“+” indicates greater than 50% inhibition at 10 μM)	+ (“+” indicates greater than 50% inhibition at 10 μM)	− (“−” indicates less than 50% inhibition at 10 μM)	+ (“+” indicates greater than 50% inhibition at 10 μM)	− (“−” indicates less than 50% inhibition at 10 μM)	− (“−” indicates less than 50% inhibition at 10 μM)	− (“−” indicates less than 50% inhibition at 10 μM)	–
COC[C@H]1OC(OCc2ccc(Cl)cc2)[C@H](NC(=O)CNC(=N)N)[C@@H](OCc2ccc(-c3ccccc3)cc2)[C@@H]1O (stereo partly shown) [compound 28]	–	–	–	–	–	–	–	–	–	–	–	A1 radioligand binding inhibition (Human δ-opioid (DOP); human δ-opioid (DOP) membranes): − (“−” indicates less than 50% inhibition at 10 μM); A2 radioligand binding inhibition (Human κ-Opioid (KOP); human κ-opioid (KOP) membranes): − (“−” indicates less than 50% inhibition at 10 μM); A3 radioligand binding inhibition (Human Melanocortin (MC3); human melanocortin MC3 membranes): − (“−” indicates less than 50% inhibition at 10 μM); A4 radioligand binding inhibition (Human Melanocortin (MC4); human melanocortin MC4 membranes): + (“+” indicates greater than 50% inhibition at 10 μM); A5 radioligand binding inhibition (Human melanocortin (MC5); human melanocortin MC5 membranes): + (“+” indicates greater than 50% inhibition at 10 μM); A6 radioligand binding inhibition ([1]; human MCH1 membranes): + (“+” indicates greater than 50% inhibition at 10 μM); A7 radioligand binding inhibition (Human μ-opioid (MOP); human μ-opioid (MOP) membranes): − (“−” indicates less than 50% inhibition at 10 μM); A8 radioligand binding inhibition (Human neurokinin (NK1); human neurokinin NK1 membranes): + (“+” indicates greater than 50% inhibition at 10 μM); A9 radioligand binding inhibition ([2]; human NPY-Y1 membranes): − (“−” indicates less than 50% inhibition at 10 μM); A10 radioligand binding inhibition (Human opioid (ORL1); human ORL1 membranes): − (“−” indicates less than 50% inhibition at 10 μM); A11 radioligand binding inhibition (Mouse urotensin (mUR2); mouse urotensin mUR2 membranes): − (“−” indicates less than 50% inhibition at 10 μM)
NCCC(=O)NC1C(OCc2ccc3ccccc3c2)OC(COCc2ccc(Cl)cc2)C(O)C1OCc1ccc2ccccc2c1 (stereo not shown) [compound 386]	–	–	–	–	–	–	–	–	–	–	–	A1: inhibition of radioligand binding (Human δ-opioid (DOP); [3H]-Bremazocine, human DOP membranes): − (“−” indicates less than 50% inhibition at 10 μM); A2: inhibition of radioligand binding (Human κ-Opioid (KOP); [3H]-Diprenorphine, human KOP membranes): − (“−” indicates less than 50% inhibition at 10 μM); A3: inhibition of radioligand binding (Human Melanocortin (MC3); [125I]-NDP-αMSH, human MC3 membranes): + (“+” indicates greater than 50% inhibition at 10 μM); A4: inhibition of radioligand binding (Human Melanocortin (MC4); [125I]-NDP-αMSH, human MC4 membranes): + (“+” indicates greater than 50% inhibition at 10 μM); A5: inhibition of radioligand binding (Human melanocortin (MC5); [125I]-NDP-αMSH, human MC5 membranes): + (“+” indicates greater than 50% inhibition at 10 μM); A6: inhibition of radioligand binding ([1]; [125I]-S36057, human MCH1 membranes): − (“−” indicates less than 50% inhibition at 10 μM); A7: inhibition of radioligand binding (Human μ-opioid (MOP); [3H]-Naloxone, human MOP membranes): − (“−” indicates less than 50% inhibition at 10 μM); A8: inhibition of radioligand binding (Human neurokinin (NK1); [125I]-Substance P, human NK1 membranes): + (“+” indicates greater than 50% inhibition at 10 μM); A9: inhibition of radioligand binding ([2]; [125I]-PYY, human NPY-Y1 membranes): − (“−” indicates less than 50% inhibition at 10 μM); A10: inhibition of radioligand binding (Human opioid (ORL1); [125I]-Nociceptin, human ORL1 membranes): − (“−” indicates less than 50% inhibition at 10 μM); A11: inhibition of radioligand binding (Mouse urotensin (mUR2); [125I]-Urotensin II, mouse mUR2 membranes): − (“−” indicates less than 50% inhibition at 10 μM)
NCCC(=O)NC1C(OCc2ccc(Cl)cc2)OC(COCc2ccccc2)C(O)C1OCc1ccc2ccccc2c1 (single isomer, unassigned) [compound 479]	− (“−” indicates less than 50% inhibition at 10 μM)	− (“−” indicates less than 50% inhibition at 10 μM)	− (“−” indicates less than 50% inhibition at 10 μM)	–	–	–	–	+ (“+” indicates greater than 50% inhibition at 10 μM)	− (“−” indicates less than 50% inhibition at 10 μM)	− (“−” indicates less than 50% inhibition at 10 μM)	− (“−” indicates less than 50% inhibition at 10 μM)	A4: inhibition of radioligand binding, human melanocortin (MC4) (Human Melanocortin (MC4); [125I]-NDP-αMSH, 10 µM): − (“−” indicates less than 50% inhibition at 10 μM); A5: inhibition of radioligand binding, human melanocortin (MC5) (Human melanocortin (MC5); [125I]-NDP-αMSH, 10 µM): − (“−” indicates less than 50% inhibition at 10 μM); A6: inhibition of radioligand binding, human melanin-concentrating hormone (MCH1) ([1]; 10 µM): − (“−” indicates less than 50% inhibition at 10 μM); A7: inhibition of radioligand binding, human μ-opioid (MOP) (Human μ-opioid (MOP); [3H]-Naloxone, 10 µM): − (“−” indicates less than 50% inhibition at 10 μM)
